{"source": "patent US20180153990A1", "about": "“PCA1 PROTEIN AND METHODS OF TREATING PNEUMOCYSTIS PNEUMONIA INFECTION” (priority 2016, published 2018)", "key": {"Pneumocystis": {"test_system": "Pneumocystis", "assay": "Pcp-IRIS model: physiologic assessment (body weight, lung compliance, lung resistance)", "format": "in vivo, SCID mice", "conditions": "treatment started when mice showed clinical signs of Pcp-IRIS", "from_the_text": "Severe combined immune deficient (SCID) mice on a C.B-17 background are maintained in a specific pathogen-free colony at University of Rochester Medical Center. For these studies, 6-8 week old female mice were infected with Pneumocystis by intratracheal inoculation with 1×10^5 Pneumocystis cysts and then also cohoused with other Pneumocystis-infected SCID mice to ensure infection. The mice were fed acidified water and sterile food. Immune reconstitution (IR) was initiated three weeks after infection by giving mice an intraperitoneal (i.p.) injection of 5×10^7 splenocytes from wild-type C.B-17 mice. All animals involved were treated ethically according to the guidelines from the Association for Assessment and Accreditation of Laboratory Care International (AAALAC International), and the protocols used were approved by the University Committee on Animal Resources.\nLung resistance and compliance were measured on living ventilated mice using a Harvard rodent ventilator (Harvard Apparatus, Southnatic, Mass.) and a whole body plethysmograph (BUXCO Electronics Inc., Wilmington, N.C.) as previously described (Wang et al., “Immune Modulation With Sulfasalazine Attenuates Immunopathogenesis but Enhances Macrophage-Mediated Fungal Clearance During Pneumocystis Pneumonia,” PLoS Pathog. 6:e1001058 (2010), which is hereby incorporated by reference in its entirety). […]"}, "alveolar macrophages": {"test_system": "alveolar macrophages", "assay": "Effect of antibody administration during Pcp on alveolar macrophage phenotype (iNOS M1 / YM-1 M2 staining)", "format": "in vivo, SCID mice", "experimental": "For this experiment the Pneumocystis-infected mice were treated as above except that they received only 2 doses of specific antibody, nonspecific antibody or sulfasalazine on days 1 and 3 and then sacrificed later in the day on day 3. BALF aliquots containing 5×10^4 cells in HBSS were cytospun onto glass slides, fixed with 3% paraformaldehyde in PBS for 15 minutes at room temperature; rinsed 3× in PBS; and permeabilized with 0.02% Triton X-100 in PBS for 15 minutes at room temperature. The slides were then rinsed 3× in PBS, blocked with species specific 5% normal serum (normal goat serum, MP Biomedical; normal donkey serum, EMD Millipore) in 0.05% Tween-20 in PBS (PBS-T) for 1 hr at room temperature and rinsed 3× in PBS-T. Alveolar macrophages were identified by staining with fluorescein labeled primary antibody to CD11c. Staining with antibody to iNOS was used to identify M1 macrophages while staining with antibody to YM-1 was considered a marker for M2 macrophages (Abcam and Stemcell).\nTo test the effect of immune modulation, by administration of sulfasalazine or passive immunization, on macrophage phenotype during response to Pneumocystis, these agents or control nonspecific antibody were administered and alveolar macrophages were harvested after 3 days."}}, "data": [{"smiles": "O=C(O)c1cc(/N=N/c2ccc(S(=O)(=O)Nc3ccccn3)cc2)ccc1O", "note": "[SSZ, sulfasalazine]", "values": [{"measurement": "severity of Pcp (recovery of body weight, pulmonary function)", "setting": "Pneumocystis", "value": "reduced severity of Pcp"}, {"measurement": "M1 phenotype alveolar macrophages", "setting": "alveolar macrophages; Treatment Day 3", "value": "200 per 300 macrophages counted"}, {"measurement": "M2 phenotype alveolar macrophages", "setting": "alveolar macrophages; Treatment Day 3", "value": "100 per 300 macrophages counted"}, {"measurement": "proportion of M2 type macrophages in the alveolar space", "setting": "alveolar macrophages; after 3 days", "value": "increase"}]}]}
